Measurements as given in patent US11465978B2, “Anthranilic amides and the use thereof” (THE ADMINISTRATORS OF THE TULANE EDUCATIONAL FUND, priority 2013, dated 2022).

Assays:
pERK5 = experiment: Western blot, inhibition of EGF-mediated formation of pERK5 in MDA-MB-231 cells; assay type: cell-based
Protocol: FIG. 9 is a set of bar graphs showing a Western blot analysis of potential MEK5 inhibitors. The MDA-MB-231 triple negative breast cancer cell line was pretreated with compounds (10 μM) for 30 minutes followed by stimulation with epidermal growth factor (EGF, 50 ng/mL) for 15 minutes. Vehicle-treated cells were pretreated with DMSO for 30 minutes prior to EGF stimulation for 15 minutes. Protein visualization and quantification analysis were performed using LI-COR Odyssey Imager. * P<0.05 vs. Vehicle, one-way ANOVA followed by Tukey-Kramer test (n=3).
A number of compounds were tested for their potential as MEK5 inhibitors. The MDA-MB-231 triple negative breast cancer cell line was pretreated with 10 μM of compounds 24, 9b, 9a, 9c, 9e, 9f, 9d, 9h, 23, 7, and 15 for 30 minutes followed by stimulation with epidermal growth factor (EGF, 50 ng/mL) for 15 minutes. Vehicle-treated cells and known MEK1/2 inhibitor cells were pretreated with DMSO and U0126 respectively for 30 minutes prior to EGF stimulation for 15 minutes. Protein visualization and quantification analysis was performed using LI-COR Odyssey Imager. The results of the Western blot analysis are shown in FIG. 9. * P<0.05 vs. Vehicle, one-way ANOVA followed by Tukey-Kramer test (n=3).
MDA-MB-231 cells were grown on 10 cm cell culture plates [Sarstedt] in Dulbecco's Modified Eagle's Medium (DMEM; Gibco) with Ham's F12 Nutrient Mixture (1:1) (Invitrogen), 10% heat-inactivated FBS [Atlanta Biological and 0.5% penicillin/streptomycin [Gibco]. Cells were maintained at 37° C. with 5% CO2. Plating of the cells was done 36 hours before treatment in 35 mm culture plates [Sarstedt] and allowed to reach confluence. To test MEK-5 inhibitors, the cells were treated with epidermal growth factor (EGF; Sigma-Aldrich) 30 min after treatment with the compounds. 15 min after the addition of EGF, the cells were washed with 1×PBS [Sigma-Aldrich] and then lysed in 1% Triton X-100 buffer containing 20 mM Tris (pH 6.8), 137 mM NaCl, 25 mM beta glycerophosphate, 2 mM NaPPi, 2 mM EDTA, 1 mM Na3VO4, 10% glycerol, 5 μg/mL leupeptin, 5 μg/mL aprotinin, 2 mM benzamidine, 0.5 mM DTT, and 1 mM PMSF. The lysates were then centrifuged at 10,000 rpm for 10 min at 4° C.
Total protein content was assessed by Bradford Bio-Rad protein assay (Cat. No. 500-0006, Bio-Rad, Hercules, Calif.) and 30 μg of protein was loaded on a 8% SDS-PAGE gel for phosphorylated and total ERK1/2 and ERK5 proteins. After running the samples, gels were transferred to a nitrocellulose membrane (Cat. No. 926-31092, Licor Biosciences, Lincoln, Nebr.). After transfer, membranes were washed for 5 min with 1×PBS and blocked for 1 h in a Casein Blocking Buffer (Cat. No. 927-40200, Licor Biosciences) at room temperature. Membranes were then incubated overnight at 4° C. in primary antibody in CBB with 0.2% Tween-20. Antibodies included rabbit anti-phospho-ERK1/2 (Dilution—1:1000, Cat. No. 9101, Cell Signaling, Beverly, Mass.), mouse anti-total ERK1/2 (Dilution—1:1000, Cat. No. 9107, Cell Signaling), and rabbit anti-total ERK5 (Dilution—1:1,000, Cat. No. 3372, Cell Signaling). Mouse anti-α-Tubulin (Dilution—1:10,000, Cat. No. T5168, Sigma-Aldrich) was used as a loading control. After incubation with primary antibody, blots were washed in 1×PBS solution with 0.2% Tween-20 (1×PBS-T) and incubated with goat anti-rabbit (Dilution—1:10,000, Cat. No. 926-68021, LICOR Biosciences) and goat anti-mouse (Dilution—1:10,000, Cat. No. 926-32210, LICOR Biosciences) secondary antibodies for 1 h at room temperature. After washing the membranes with 1×PBS-T, the protein bands were visualized on an Odyssey Infrared Imager and quantified with Odyssey software (LICOR Biosciences).

MDA-MB 231 cells = experiment: Morphology (mesenchymal to epithelial phenotype) during proliferation testing; assay type: cell-based
Protocol: Proliferation studies were conducted using MDA-MB 231 cells, as they express the triple negative cancer phenotype. Compound 3 was selected due to its potency in inhibition of both MEK1/2 and MEK5. MDA-MB 231 cells were plated at 10,000 cells per well in a 96 well TC plate in 5% Charcoal-Dextran stripped media and incubated overnight at 37° C. in 5% CO2. The cells were treated with drug or vehicle the following day. Plates were harvested on days 3, 5 and 7 and stained with Crystal Violet. […] The cells were washed, lysed, and the absorbance of Crystal Violet sequestered in living cells was determined at […]. Wells were conducted in duplicate. Experiments were run in triplicate. Cells were normalized to initial cell count.
Examination of the MDA-MB 231 cells during the proliferation testing period was conducted. Untreated (DMSO) cells retained an elongated spiky cellular morphology characteristic of the mobile and invasive mesenchymal phenotype. […] The observed phenotypic conversion persisted for 14 days without reversion back to the mesenchymal phenotype, see FIG. 12.

MDA-MB-231 xenograft = experiment: Animal xenograft study, tumor volume; assay type: in vivo, SCID/beige female mice; conditions: SCID female mice, 1×10^6 MDA-MB231 cells bilaterally, 25 mg/kg on day 0, 30 days
Protocol: End point tumor volume for SCID female mice injected bilaterally with 1×10^6 MDA-MB231 cells, n=10. Animals were treated on day 0 (cell injection day) with either DMSO or SC-1-151 (25 mg/kg). Tumor size was measured biweekly for 30 days using a digital caliper. Bars represent final average tumor volume±SEM.
Immune-compromised SCID/beige female mice (29-32 days old) were obtained from Charles River Laboratories (Wilmington, Mass.). The animals were allowed a period of adaptation in a sterile and pathogen-free environment with food and water ad libitum. Breast cancer cells MDA-MB-231 were grown in 5% FBS charcoal-stripped DMEM for five days then harvested. Viable cells were mixed with PBS and Matrigel Reduced Factors (BD Biosciences, San Jose, Calif.). Injections (1×10^6 cells/injection) were made bilaterally into the mammary fat pad on day 0 (May 7, 2013). All the procedures in animals were carried out under anesthesia using a mix of isoflurane and oxygen delivered by mask. Animals were treated on day 0 with either DMSO or SC-1-151 (25 mg/kg). Tumor size was measured biweekly for 30 days using a digital caliper. Tumor volume was calculated using the following formula: 4/3πLM^2, where L is the larger radius and M is the smaller radius. On day 31, tumors were excised and blocked in OCT compound. Mice were monitored daily to insure survival after the surgery. […]

SMILES: NC(=O)c1ccc(F)c(F)c1Nc1ccc(I)cc1F [Compound 3, 3,4-difluoro-2-((2-fluoro-4-iodophenyl)amino)benzamide]
- pERK-5 decrease (%) (pERK5; Example 3 table, DMSO = 0, MDA-MB-231, EGF stimulation): 59%
- inhibition at 10 µM (pERK5; Homo sapiens, MDA-MB-231, Table 1, MDA-MB-231, compounds 10 μM 30 min, then EGF 50 ng/mL 15 min, read-out: cellular pERK5 decrease (%)): 56.5%
- conversion of mesenchymal to epithelial cellular morphology (MDA-MB 231 cells): more rounded cellular morphology
- persistence of phenotypic conversion without reversion to mesenchymal phenotype (MDA-MB 231 cells): 14 days
- conversion of cell phenotype (MDA-MB 231 cells; 10 μM): marked conversion of nearly all cells back to a more rounded phenotype
- tumorigenesis in vivo (end point tumor volume) (MDA-MB-231 xenograft): decreases tumorigenesis
